Results as given in US20230159538A1, “PYRROLIDINE-PYRAZOLES AS PYRUVATE KINASE ACTIVATORS” (Global Blood Therapeutics, Inc., priority 2020, published 2023).

Target: T1, Human pyruvate kinase R (PKR) (Homo sapiens, UniProt P30613)
T1 construct: Human pyruvate kinase R (PKR), residues 14-574; 6x-His (N, cleaved yes); 8x-Arg (N, cleaved yes); SUMO (N, cleaved yes); host or cells: E. coli
Experiment: Biochemical assay for activation of pyruvate kinase R (Kinase-Glo luminescence, ATP generation)
Details: for AC50: 0.1 nM PKR, 2 mM FBP, 0.3 mM ADP, 0.1 mM PEP; for PKR % activation: maximal activation level relative to the activation level achieved by AG-348 @ 10 μM
Description: Proteins were translated as fusions with 6×-His, 8×-Arg, and SUMO at the N-terminus. […] All proteins were cloned, expressed in E. coli, and purified using similar protocols. Cells were grown at 30° C. in Luria-Bertani broth supplemented with 0.4% glucose to OD600=0.8 and induced with 0.4 mM IPTG at 16° C. for 18 hours. Cells were harvested by centrifugation, resuspended in 50 mM potassium phosphate pH 8.0, 500 mM NaCl, 25 mM imidazole pH 8.0, and 3 mM β-mercaptoethanol. Cells were lysed using a LM20 microfluidizer from Microfluidics (Westwood, Mass.). The crude lysate was immediately supplemented with 0.2 mM phenylmethylsulfonyl fluoride (PMSF) and centrifuged at 20,000 g for 20 minutes. The soluble fraction was subsequently incubated with 2 mL Ni-NTA (GE Healthcare) per 1,000 ODs for 1 hour at 4° C. Following incubation with the Ni-NTA resin, lysate was removed by pelleting resin at 2,500 g for 3 minutes and washed 3 times with 9 bed volumes of 50 mM potassium phosphate pH 8.0, 500 mM NaCl, 25 mM imidazole, and 3 mM β-mercaptoethanol. Following the batch wash Ni-NTA resin was loaded onto a gravity column and His-tagged protein was eluted with 6 bed volumes of 10 mM Tris/HCl pH 8.0, 200 mM NaCl, 500 mM imidazole, and 3 mM β-mercaptoethanol. Eluted protein was dialyzed overnight against 10 mM Tris/HCl pH 8.0, 200 mM NaCl, and 1 mM DTT and the 6×-His-8×-Arg-SUMO-tag was cleaved using a 20:1 molar ratio of protein:3C protease. The protein was purified by anion exchange chromatography on a HiTrapQ or MonoQ 10/100 GL column (GE Healthcare) via a linear NaCl gradient and twice by size exclusion chromatography using a Superdex S200 26/60 column (GE Healthcare) run in 10 mM Tris/HCl pH 8.0, 200 mM NaCl, 10 mM MgCl2, 1 mM DTT. Proteins were concentrated to ˜12 mg/mL for crystallization and flash frozen for storage.
Biochemical Assay for Activation of Pyruvate Kinase R
Activation of pyruvate kinase R (PKR) and pyruvate kinase M2 (PKM2) were measured using a luminescence based measurement of ATP generation and the Kinase-Glo luminescent kinase reagent kit.

T1 sequence (P30613 14-574): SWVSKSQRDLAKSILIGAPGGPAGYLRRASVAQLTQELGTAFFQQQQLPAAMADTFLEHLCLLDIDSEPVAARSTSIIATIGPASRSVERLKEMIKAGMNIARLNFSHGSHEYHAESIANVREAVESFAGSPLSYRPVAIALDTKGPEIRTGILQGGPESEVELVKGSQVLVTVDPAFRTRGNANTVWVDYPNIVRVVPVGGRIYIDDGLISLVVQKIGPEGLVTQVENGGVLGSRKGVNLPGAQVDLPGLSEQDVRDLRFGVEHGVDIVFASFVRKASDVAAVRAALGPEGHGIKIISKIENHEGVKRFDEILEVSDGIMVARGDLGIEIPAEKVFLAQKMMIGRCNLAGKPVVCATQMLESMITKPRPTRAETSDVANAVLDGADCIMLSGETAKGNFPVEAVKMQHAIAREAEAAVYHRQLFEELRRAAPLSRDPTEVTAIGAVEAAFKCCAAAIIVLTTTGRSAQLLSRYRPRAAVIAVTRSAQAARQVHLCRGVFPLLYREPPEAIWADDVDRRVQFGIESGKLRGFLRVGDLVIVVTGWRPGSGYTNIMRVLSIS

Row | AC50 [nM] | PKR % activation [%] | SMILES
1 | 12 | 81 | O=C([C@H](CO)c1ncccc1F)N1Cc2cn(S(=O)(=O)c3ccc4ncccc4c3)nc2C1 (single isomer, unassigned) [Compound 102, (2S)-2-(3-fluoropyridin-2-yl)-3-hydroxy-1-[2-(quinoline-6-sulfonyl)-2H,4H,5H,6H-pyrrolo[3,4-c]pyrazol-5-yl]propan-1-one or (2R)-2-(3-fluoropyridin-2-yl)-3-hydroxy-1-[2-(quinoline-6-sulfonyl)-2H,4H,5H,6H-pyrrolo[3,4-c]pyrazol-5-yl]propan-1-one]
2 | 4000 | – | O=C(N1Cc2cn(S(=O)(=O)c3ccc4ncsc4c3)nc2C1)C1(c2ccccc2)CCCN1 (single isomer, unassigned) [Compound 54, 6-({5-[(2S)-2-phenylpyrrolidine-2-carbonyl]-2H,4H,5H,6H-pyrrolo[3,4-c]pyrazol-2-yl}sulfonyl)-1,3-benzothiazole or 6-({2-[(2R)-2-phenylpyrrolidine-2-carbonyl]-2H,4H,5H,6H-pyrrolo[3,4-c]pyrazol-2-yl}sulfonyl)-1,3-benzothiazole]
3 | 13 | – | N[C@@H](C(=O)N1Cc2cn(S(=O)(=O)c3ccc4ncsc4c3)nc2C1)c1ccccc1Cl [Compound 52, (2R)-2-amino-1-[2-(1,3-benzothiazole-6-sulfonyl)-2H,4H,5H,6H-pyrrolo[3,4-c]pyrazol-5-yl]-2-(2-chlorophenyl)ethan-1-one]

Further lines, the compound ahead of its results:

Row | SMILES | AC50 [nM] | PKR % activation [%]
4 | O=C([C@@H](c1ccccc1)N1CCC1=O)N1Cc2cn(S(=O)(=O)c3ccc(OC(F)F)cc3)nc2C1 (single isomer, unassigned) [Compound 99, 1-[(1R)-2-{2[4-(difluoromethoxy)benzenesulfonyl]-2H,4H,5H,6H-pyrrolo[3,4-c]pyrazol-5-yl}-2-oxo-1-phenylethyl]azetidin-2-one or 1-[(1S)-2-{2-[4-(difluoromethoxy)benzenesulfonyl]-2H,4H,5H,6H-pyrrolo[3,4-c]pyrazol-5-yl}-2-oxo-1-phenylethyl]azetidin-2-one] | 190 | 92
5 | C[C@@H](O)[C@H](C(=O)N1Cc2cn(S(=O)(=O)c3ccc4cn[nH]c4c3)nc2C1)c1ccccc1 (single isomer, unassigned) [Compound 62] | 47 | 115
6 | N[C@@H](C(=O)N1Cc2cn(S(=O)(=O)c3ccc4ncsc4c3)nc2C1)c1ccc(F)cc1 [Compound 28, (2R)-2-amino-1-[2-(1,3-benzothiazole-6-sulfonyl)-2H,4H,5H,6H-pyrrolo[3,4-c]pyrazol-5-yl]-2-(4-fluorophenyl)ethan-1-one] | 13 | –
7 | O=C([C@H](CO)c1ncccc1F)N1Cc2cn(S(=O)(=O)c3ccc4ncccc4c3)nc2C1 (single isomer, unassigned) [Compound 103, (2S)-2-(3-fluoropyridin-2-yl)-3-hydroxy-1-[2-(quinoline-6-sulfonyl)-2H,4H,5H,6H-pyrrolo[3,4-c]pyrazol-5-yl]propan-1-one or (2R)-2-(3-fluoropyridin-2-yl)-3-hydroxy-1-[2-(quinoline-6-sulfonyl)-2H,4H,5H,6H-pyrrolo[3,4-c]pyrazol-5-yl]propan-1-one] | 220 | 41
8 | C[C@@H](O)[C@H](C(=O)N1Cc2cn(S(=O)(=O)c3ccc(OC(F)F)cc3)nc2C1)c1ccccc1 [Compound 10] | 455 | 165
9 | O=CN[C@@H](C(=O)N1Cc2cn(S(=O)(=O)c3ccc(OC(F)F)cc3)nc2C1)c1ccccc1F [Compound 78, N-[(1R)-2-{2-[4-(difluoromethoxy)benzenesulfonyl]-2H,4H,5H,6H-pyrrolo[3,4-c]pyrazol-5-yl}-1-(2-fluorophenyl)-2-oxoethyl]formamide] | 4.7 | –
10 | CN1Cc2cc(S(=O)(=O)n3cc4c(n3)CN(C(=O)[C@H](CO)c3ccccc3)C4)ccc2OC1=O [Compound 96, 6-({5-[(2S)-3-hydroxy-2-phenylpropanoyl]-2H,4H,5H,6H-pyrrolo[3,4-c]pyrazol-2-yl}sulfonyl)-3-methyl-3,4-dihydro-2H-1,3-benzoxazin-2-one] | 53 | –
